Source: article PMC2360155, “Novel retinoic acid metabolism blocking agents have potent inhibitory activities on human breast cancer cells and tumour growth” (British Journal of Cancer, 2007)

Tests used:
Type in all cases: cell-based, human
[1] = system: MCF-7 cells; experiment: TUNEL apoptosis assay, MCF-7; settings: 5 μM; 6 days; control about 1.5%
Excerpt: (§1) The cells were rinsed with PBS and then the stained-labelled apoptotic cells were mounted using DAPI (diamidino-2-phenylindole 2HCl)-glycerol and visualised with a fluorescent microscope using two filters (1) for TUNEL stained cells, and (2) for DAPI stained cells, which represents all the cells (nuclei). Fluorescent microscope model was Nikon, Eclipse E400 and the software was SPOT advanced version 3.5.5 by Diagnostic Instruments Inc. (Sterling Heights, MI, USA).
(§2) Figure 6 Graphs showing apoptosis induced in (A) MCF-7 and (B) T47D cells as determined by TUNEL. […] TUNEL-stained apoptotic cells were counted against the DAPI stained cells to obtain percentage apoptosis. The experiments were repeated thrice with similar results. Error bars show s.e.m of three different fields of treated cells, statistically significant ^*P<0.01 and ^**P<0.001 vs control.

[2] = system: T47D cells; experiment: TUNEL apoptosis assay, T47D; settings: 5 μM; 6 days; control about 1.5%
Excerpt: as §1, §2

[3] = system: cyclin D1; experiment: Western blotting for cyclin D1 in MCF-7 cells; settings: 6 days (4HPR 4 days)
Procedure: (§3) At the end of the treatment, cells were scrapped and collected by washing with ice-cold PBS in a centrifuge tube. Cells were centrifuged at 2500 r.p.m. for 10 min, the pellet was again washed with ice-cold PBS and centrifuged. The cell pellet was then suspended in chilled cell lysis buffer (0.1 M Tris–HCl, 0.5% Triton X-100, protease inhibitor cocktail) and sonicated on ice for 10–15 s. The homogenate was kept on ice for 30 min and then centrifuged at 13 000 r.p.m. for 30 min. The supernatant was used as cell lysate. The cell lysates were stored at −80°C. Protein concentration of the cell lysates was determined using Bio-Rad protein assay reagents.
(§4) Protein lysates from MCF-7 and T47D cells were subjected to sodium dodecyl sulphate–polyacrylamide gel electrophoresis (SDS–PAGE) and immunoblotted for different proteins. […] Immunoreactive bands were visualised using the enhanced chemiluminescence detection reagents and analysis system (Amersham Bioscences) according to the manufacturer's instructions and quantified by densitometry using ImageQuant software version 5.
(§5) Figure 5 Western blotting of whole-cell lysates of treated MCF-7 and T47D cells for the expression of Cyclin D1. […] Numbers below the blot show fold decrease in expression of the protein as analysed by ImageQuant densitometry analysis. […]

[4] = system: cyclin D1; experiment: Western blotting for cyclin D1 in T47D cells; settings: 1, 5 and 10 μM, 6 days
Procedure: as §3, §4, §5

[5] = system: PARP; experiment: Western immunoblotting for cleaved PARP in T47D cells; settings: 6 days
Procedure: as §3, §4
Figure 7 (A) Western immunoblotting of whole-cell lysates of treated MCF-7 and T47D cells for the expression of Bad. […] Numbers below the blot show fold increase in expression of the protein as analysed by ImageQuant densitometry analysis. […]

## CC1=C(/C=C/C(C)=C/C=C/C(C)=C\C(=O)Nc2ccc(O)cc2)C(C)(C)CCC1n1ccnc1 (stereo not drawn) [VN/69-1]
[1]
  Induction of apoptosis (TUNEL), MCF-7: least effective of the RAMBAs in inducing apoptosis
[2]
  Induction of apoptosis (TUNEL), T47D: least effective of the RAMBAs in inducing apoptosis

## CC1=C(/C=C/C(C)=C/C=C/C(C)=C/C(=O)O)C(C)(C)CCC1 [ATRA, all-trans-retinoic acid, reference compound]
[3]
  Decrease of cyclin D1 protein expression compared with untreated control: > 80%

## CC1=C(/C=C/C(C)=C/C=C/C(C)=C/C(=O)O)C(C)(C)CCC1n1ccnc1 (stereo not drawn) [VN/14-1]
[4]
  Expression of cyclin D1 (in words): significantly downregulated
[5]; 1 μM
  Increase in level of cleaved PARP compared with control: 6.3 fold
[5]; 5 μM
  Increase in level of cleaved PARP compared with control: 7.5 fold
